The source of these data is patent US12163158B2, “Organoid and method for producing same” (priority 2017, dated 2024).

Format in all cases: cell-based
Assay [1] deals with mouse ES cell-derived heart organoid. In words: Ca2+ measurement of drug responsiveness in heart organoids. The conditions noted are these: 1 μM isoproterenol vs absence (control); 15-second recording; Fluo8 fluorescence; FIG. 40. Here is the method: The heart organoids were washed twice with PBS and immersed in a 4 μM green fluorescent intracellular calcium indicator Fluo8 AM (acetoxymethyl) or Fluo8 AM/F127, freshly diluted with Tyrode's solution containing 1.8 mM Ca^2+, at 37° C. for 15 to 30 minutes. Thereafter, the heart organoids were washed twice with PBS, treated with 200 μL of Tyrode's solution, mounted, and observed with a fluorescence microscope (manufactured by Keyence Corporation). Specifically, first, Ca^2+ measurement was performed by the method described above (Ca Measurement) in the presence and absence (control) of 1 μM isoproterenol, which is an adrenergic […] agonist. A 15-second recording (movie) was taken, and image analysis was performed to detect the change in the intensity (Y-axis) of the fluorescent signal with time (X-axis).

The subject of assay [2] is mouse ES cell-derived embryoid bodies. The assay can be described thus: Heart organoid formation from embryoid bodies on LN/ET gel in the presence of FGF protein. The conditions noted are these: bFGF instead of FGF4; not shown in the figure. Here is the method:
For the purpose of attempting to mimic such a process of developing a heart in the living body, as shown in the lower stage of FIG. 1, first, mouse ES cells were cultured in a low-binding U-bottom 96-well plate in the absence of leukemia inhibitory factor (LIP) to obtain complete embryoid bodies (EB) (1000 to 5000 cells/embryoid body). […]

The test system of assay [3] is human iPS cells (253G1) embryoid bodies. The assay can be described thus: Formation of heart and lung organoids from human iPS cells under conditions I to IV. The conditions noted are these: embryoid bodies on gelated LN/ET complex; at collection (day 13 of culture or later); FIG. 49.

Consider `CC(C)NCC(O)c1ccc(O)c(O)c1` (stereo not drawn) [isoproterenol], for which the “change of Ca signal cycle in heart organoids” value in assay [1] is reported as “shorten the Ca signal cycle (tachycardia-like)”.

Turning to “bFGF: fibroblast growth factor 2 (FGF2, bFGF)”, the “production of beating heart organoid” value in assay [2] is given as “successfully produced the same beating heart organoid”.

B1: condition II: additive to medium: FGF4 (30 ng/mL) (protein, UniProt P08620 31-206, looked up)
Fibroblast growth factor 4: APTAPNGTLEAELERRWESLVALSLARLPVAAQPKEAAVQSGAGDYLLGIKRLRRLYCNVGIGFHLQALPDGRIGGAHADTRDSLLELSPVERGVVSIFGVASRFFVAMSSKGKLYGSPFFTDECTFKEILLPNNYNAYESYKYPGMFIALSKNGKTKKGNRVSPTMKVTHFLPRL
As to B1, in assay [3], the “efficiency of producing heart organoids and lung organoids (combined heart and lung, separated heart and lung)” value was 62.5%.
